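Assay format: 96-well plates, 48-hour exposure. The concentration for 50% growth inhibition is given as GI50.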 Calls of active or inactive are those of the source. Rule as the data show it: active = GI50 up to about 1.1 µM and inactive = higher.
Columns and labels:
Assay in all cases: NCI-60 cell line screen, 48 h
[1] = system: 786-0
[2] = system: SK-MEL-2
[3] = system: HT-29
[4] = system: UACC-257
[5] = system: HOP-18
[6] = system: SNB-75
[7] = system: HCT-116
[8] = system: ACHN
[9] = system: UO-31
[10] = system: OVCAR-3
[11] = system: SNB-78
[12] = system: U-251
[13] = system: RXF 631
[14] = system: NCI-H522
[15] = system: EKVX
[16] = system: NCI-H23
[17] = system: KM12
[18] = system: SF-268
[19] = system: NCI-H226
[20] = system: OVCAR-8
[21] = system: OVCAR-4
[22] = system: Malme-3M
[23] = system: OVCAR-5
[24] = system: SK-MEL-5
[25] = system: A549
[26] = system: MOLT-4
[27] = system: HL-60
[28] = system: SW-620
[29] = system: SF-539
[30] = system: A498
[31] = system: LOX IMVI
[32] = system: LXFL 529
[33] = system: CAKI-1
[34] = system: KM-20L2
[35] = system: K562
[36] = system: SF-295
[37] = system: CCRF-CEM
[38] = system: DLD-1
[39] = system: XF498
[40] = system: HOP-62
[41] = system: COLO 205
[42] = system: TK-10
[43] = system: SN12C
[44] = system: HCC 2998
[45] = system: M19-MEL
[46] = system: SK-MEL-28
[47] = system: SNB-19
[48] = system: SR
[49] = system: RXF 393
[50] = system: SK-OV-3
[51] = system: NCI-H460
[52] = system: UACC-62
[53] = system: M14
[54] = system: IGROV-1
[55] = system: DMS-273
[56] = system: RPMI-8226
[57] = system: HOP-92
[58] = system: HCT-15
[59] = system: DMS-114

CCOC(=O)Cc1nc2ccccc2s1
GI50 [1]: 18.9 µM (inactive)
GI50 [2]: 18.2 µM (inactive)
GI50 [3]: 19.6 µM (inactive)
GI50 [4]: 17.3 µM (inactive)
GI50 [5]: 24.8 µM (inactive)
GI50 [6]: 29.3 µM (inactive)
GI50 [7]: 18.2 µM (inactive)
GI50 [8]: 17.1 µM (inactive)
GI50 [9]: 15.8 µM (inactive)
GI50 [10]: > 10 µM (inactive)
GI50 [11]: 18.1 µM (inactive)
GI50 [12]: 17 µM (inactive)
GI50 [13]: 16.8 µM (inactive)
GI50 [14]: 19.6 µM (inactive)
GI50 [15]: 39.4 µM (inactive)
GI50 [16]: 15.6 µM (inactive)
GI50 [17]: > 10 µM (inactive)
GI50 [18]: 18.6 µM (inactive)
GI50 [19]: 21.8 µM (inactive)
GI50 [20]: 17.5 µM (inactive)
GI50 [21]: > 10 µM (inactive)
GI50 [22]: 16.3 µM (inactive)
GI50 [23]: 24.9 µM (inactive)
GI50 [24]: 20.6 µM (inactive)
GI50 [25]: 22.9 µM (inactive)
GI50 [26]: 25.6 µM (inactive)
GI50 [27]: 18.2 µM (inactive)
GI50 [28]: 19.2 µM (inactive)
GI50 [29]: 18.4 µM (inactive)
GI50 [30]: 18.5 µM (inactive)
GI50 [31]: 17.8 µM (inactive)
GI50 [32]: 16 µM (inactive)
GI50 [33]: 19.6 µM (inactive)
GI50 [34]: 27.6 µM (inactive)
GI50 [35]: 25.4 µM (inactive)
GI50 [36]: 17.7 µM (inactive)
GI50 [37]: 18.8 µM (inactive)
GI50 [38]: 16.6 µM (inactive)
GI50 [39]: 14.8 µM (inactive)
GI50 [40]: 22.9 µM (inactive)
GI50 [41]: 38.6 µM (inactive)
GI50 [42]: 27.5 µM (inactive)
GI50 [43]: 16.8 µM (inactive)
GI50 [44]: 88.1 µM (inactive)
GI50 [45]: 18.4 µM (inactive)
GI50 [46]: 15 µM (inactive)
GI50 [47]: 44.5 µM (inactive)
GI50 [48]: 20.1 µM (inactive)
GI50 [49]: 20.9 µM (inactive)
GI50 [50]: 50.9 µM (inactive)
GI50 [51]: 20.4 µM (inactive)
GI50 [52]: 17.9 µM (inactive)
GI50 [53]: 16.6 µM (inactive)
GI50 [54]: 39 µM (inactive)
GI50 [55]: 22.6 µM (inactive)

COC(=O)C1CC/C(=N/c2ccc(C)cc2C)N1 (configuration not stated)
GI50 [1]: > 100 µM (inactive)
GI50 [2]: > 100 µM (inactive)
GI50 [56]: > 100 µM (inactive)
GI50 [3]: > 100 µM (inactive)
GI50 [4]: > 100 µM (inactive)
GI50 [5]: > 100 µM (inactive)
GI50 [6]: 99.3 µM (inactive)
GI50 [7]: > 100 µM (inactive)
GI50 [8]: > 100 µM (inactive)
GI50 [9]: > 100 µM (inactive)
GI50 [10]: > 100 µM (inactive)
GI50 [11]: > 100 µM (inactive)
GI50 [12]: > 100 µM (inactive)
GI50 [13]: > 100 µM (inactive)
GI50 [14]: > 100 µM (inactive)
GI50 [15]: > 100 µM (inactive)
GI50 [16]: > 100 µM (inactive)
GI50 [57]: > 100 µM (inactive)
GI50 [17]: > 100 µM (inactive)
GI50 [18]: > 100 µM (inactive)
GI50 [19]: > 100 µM (inactive)
GI50 [20]: > 100 µM (inactive)
GI50 [21]: > 100 µM (inactive)
GI50 [22]: > 100 µM (inactive)
GI50 [23]: > 100 µM (inactive)
GI50 [24]: > 100 µM (inactive)
GI50 [25]: > 100 µM (inactive)
GI50 [26]: > 100 µM (inactive)
GI50 [27]: > 100 µM (inactive)
GI50 [28]: > 100 µM (inactive)
GI50 [58]: > 100 µM
GI50 [30]: > 100 µM (inactive)
GI50 [31]: > 100 µM (inactive)
GI50 [32]: > 100 µM (inactive)
GI50 [33]: > 100 µM (inactive)
GI50 [34]: > 100 µM (inactive)
GI50 [35]: > 100 µM (inactive)
GI50 [36]: > 100 µM (inactive)
GI50 [37]: > 100 µM (inactive)
GI50 [38]: > 100 µM (inactive)
GI50 [39]: > 100 µM (inactive)
GI50 [40]: > 100 µM (inactive)
GI50 [41]: > 100 µM (inactive)
GI50 [42]: > 100 µM (inactive)
GI50 [43]: > 100 µM (inactive)
GI50 [44]: > 100 µM (inactive)
GI50 [45]: > 100 µM (inactive)
GI50 [46]: > 100 µM (inactive)
GI50 [47]: > 100 µM (inactive)
GI50 [50]: > 100 µM (inactive)
GI50 [51]: > 100 µM (inactive)
GI50 [52]: > 100 µM (inactive)
GI50 [53]: > 100 µM (inactive)
GI50 [54]: > 100 µM (inactive)
GI50 [55]: > 100 µM (inactive)

CN1C(=O)C(=O)N2c3ccc(Cl)cc3C3(c4ccccc4)N=CC12O3 (configuration not stated)
GI50 [59]: 3.21 µM (inactive)
GI50 [1]: 6.95 µM (inactive)
GI50 [2]: 6.01 µM (inactive)
GI50 [56]: 2.19 µM (inactive)
GI50 [3]: 4.55 µM (inactive)
GI50 [4]: 5.79 µM (inactive)
GI50 [5]: 20.4 µM (inactive)
GI50 [6]: 3.6 µM (inactive)
GI50 [7]: 3.9 µM (inactive)
GI50 [8]: 4.7 µM (inactive)
GI50 [9]: 4.1 µM (inactive)
GI50 [10]: 4.38 µM (inactive)
GI50 [11]: 6.7 µM (inactive)
GI50 [12]: 9.48 µM (inactive)
GI50 [14]: 2.4 µM (inactive)
GI50 [15]: 8.87 µM (inactive)
GI50 [16]: 4.13 µM (inactive)
GI50 [57]: 2.39 µM (inactive)
GI50 [17]: 3.55 µM (inactive)
GI50 [18]: 7.53 µM (inactive)
GI50 [19]: 10.1 µM (inactive)
GI50 [20]: 3.13 µM (inactive)
GI50 [21]: 2.11 µM (inactive)
GI50 [22]: 20 µM (inactive)
GI50 [23]: 6.93 µM (inactive)
GI50 [24]: 5.52 µM (inactive)
GI50 [25]: 10.8 µM (inactive)
GI50 [26]: 3.07 µM (inactive)
GI50 [27]: 2.25 µM (inactive)
GI50 [28]: 3.79 µM (inactive)
GI50 [58]: 3.24 µM
GI50 [29]: 3.27 µM (inactive)
GI50 [30]: 10.8 µM (inactive)
GI50 [31]: 1.53 µM (inactive)
GI50 [32]: 3 µM (inactive)
GI50 [33]: 5.13 µM (inactive)
GI50 [34]: 8.83 µM (inactive)
GI50 [35]: 3.45 µM (inactive)
GI50 [36]: 11.1 µM (inactive)
GI50 [37]: 3.03 µM (inactive)
GI50 [38]: 2.83 µM (inactive)
GI50 [39]: 3.13 µM (inactive)
GI50 [40]: 15 µM (inactive)
GI50 [41]: 4.02 µM (inactive)
GI50 [42]: 5.45 µM (inactive)
GI50 [43]: 3.53 µM (inactive)
GI50 [44]: 14.7 µM (inactive)
GI50 [45]: 3.57 µM (inactive)
GI50 [46]: 3.44 µM (inactive)
GI50 [47]: 12.9 µM (inactive)
GI50 [49]: 1.9 µM (inactive)
GI50 [50]: 10.1 µM (inactive)
GI50 [51]: 6.03 µM (inactive)
GI50 [52]: 3.94 µM (inactive)
GI50 [53]: 3.21 µM (inactive)
GI50 [54]: 7.28 µM (inactive)
GI50 [55]: 4.35 µM (inactive)
